Data on one compound can be found in article PMC5071672 (2016).

The test system of experiment [1] is duplex-[(dAdT)12·(dAdT)12] (DNA, duplex) ATATATATATATATATATATATAT
Briefly: ITC. Conditions: 100 mM KCl; 25 mM MOPS, 1 mM EDTA, pH 7.1, 25 °C; too weak to be analysed.

Experiment [2] has as its system duplex-[(dGdC)12·(dGdC)12] (DNA, duplex) GCGCGCGCGCGCGCGCGCGCGCGC
Nature of the experiment: ITC. The conditions noted are these: 100 mM KCl; 25 mM MOPS, 1 mM EDTA, pH 7.1, 25 °C; site 1 of 2; ill-defined, SI favours higher value.

Experiment [3] relates to 22AG (DNA, G4) AGGGTTAGGGTTAGGGTTAGGG
Briefly: ITC. Conditions: 100 mM KCl; 25 mM MOPS, 1 mM EDTA, pH 7.1, 25 °C; site 1 of 2.

The subject of experiment [4] is c-myc (DNA, G4) TGAGGGTGGGTAGGGTGGGTAA
Nature of the experiment: ITC. The conditions noted are these: 100 mM KCl; 25 mM MOPS, 1 mM EDTA, pH 7.1, 25 °C; site 1 of 2; nB restricted to 2.

Experiment [5] relates to duplex-[(dAdT)12·(dAdT)12] (DNA, duplex) ATATATATATATATATATATATAT
Nature of the experiment: UV/visible titration. The conditions noted are these: 100 mM KCl; 25 mM MOPS, 1 mM EDTA, pH 7.1, 20 °C (text: 25 °C); 2 µM ligand; affinity printed as negligible.

Experiment [6] has as its system duplex-[(dGdC)12·(dGdC)12] (DNA, duplex) GCGCGCGCGCGCGCGCGCGCGCGC
Briefly: UV/visible titration. Conditions: 100 mM KCl, 25 mM MOPS, 1 mM EDTA, pH 7.1, 20 °C (text: 25 °C), apparent, per site, MIS model.

Experiment [7] deals with 22AG (DNA, G4) AGGGTTAGGGTTAGGGTTAGGG
Briefly: UV/visible titration. The conditions noted are these: 100 mM KCl, 25 mM MOPS, 1 mM EDTA, pH 7.1, 20 °C (text: 25 °C), apparent, per site, MIS model.

The subject of experiment [8] is c-myc (DNA, G4) TGAGGGTGGGTAGGGTGGGTAA
Nature of the experiment: UV/visible titration. Conditions: 100 mM KCl, 25 mM MOPS, 1 mM EDTA, pH 7.1, 20 °C (text: 25 °C), apparent, per site, MIS model.

Experiment [9] relates to duplex-[(dAdT)12·(dAdT)12] (DNA, duplex) ATATATATATATATATATATATAT
Nature of the experiment: fluorescence titration. The conditions noted are these: 100 mM KCl; 25 mM MOPS, 1 mM EDTA, pH 7.1, 20 °C (text: 25 °C); 2 µM ligand; affinity printed as negligible.

In experiment [10] the test system is duplex-[(dGdC)12·(dGdC)12] (DNA, duplex) GCGCGCGCGCGCGCGCGCGCGCGC
Nature of the experiment: fluorescence titration. Conditions: 100 mM KCl, 25 mM MOPS, 1 mM EDTA, pH 7.1, 20 °C (text: 25 °C), apparent, per site, MIS model.

Experiment [11] concerns 22AG (DNA, G4) AGGGTTAGGGTTAGGGTTAGGG
Nature of the experiment: fluorescence titration. The conditions noted are these: 100 mM KCl, 25 mM MOPS, 1 mM EDTA, pH 7.1, 20 °C (text: 25 °C), apparent, per site, MIS model.

In experiment [12] the test system is c-myc (DNA, G4) TGAGGGTGGGTAGGGTGGGTAA
Briefly: fluorescence titration. Conditions: 100 mM KCl, 25 mM MOPS, 1 mM EDTA, pH 7.1, 20 °C (text: 25 °C), apparent, per site, MIS model.

With `C[n+]1cccc(-c2cc3c4cc(-c5ccc[n+](C)c5)c5nc(C(F)(F)C(F)(F)C(F)(F)F)nc6c(-c7ccc[n+](C)c7)cc(c7cc(-c8ccc[n+](C)c8)c8nc(C(F)(F)C(F)(F)C(F)(F)F)nc2c8c37)c4c56)c1`, the binding entry in experiment [1], in experiment [5] and in experiment [9] was “weak” throughout. Besides, the “K A” value in experiment [2] is 1.2×10^5 (<8×10^6) M^-1; in experiment [3], 3.8×10^6 (<36×10^6) M^-1; in [4] it was 1.3×10^7 (>0.4×10^7) M^-1. In addition, the K b entry in experiment [6] is “(2.6±0.9) × 10^6 M^-1”; in experiment [7] it was “(8.4±2.2) × 10^6 M^-1”; in [8], “(23.8±7.3) × 10^6 M^-1”; in [10] it was “(2.6±0.7) × 10^6 M^-1”; in [11] it was “(1.2±0.2) × 10^6 M^-1”; in [12] it was “(23.1±5.9) × 10^6 M^-1”.
